Patent US8137970B2, “Methods for inducing the differentiation of hematopoietic stem cells into megakaryocytes and platelets, and gene controlling the differentiation” (Ewha University-Industry Collaboration Foundation, priority 2008, dated 2012)

Legend:
Assay type in all cases: cell-based, human
[1] = test system: K562 cells; test: RT-PCR of KLF2, LOC138255, GDF15 and INHBE mRNA during megakaryocytic development; settings: 50 μg/ml, incubated 6, 12, 24, 48, 72, 96 and 120 hr, FIG. 3
Experimental: (§1) The OP9 stromal cell line was aliquoted into 6-well culture plate at a density of 1×10^5/well, and cultured for 24 hrs as a monolayer in a-MEM supplemented with 20% heat-inactivated FBS, 0.5% penicillin/streptomycin and 1.5 g/L sodium bicarbonate. When the OP9 stromal cell line was cultured as a monolayer, the K562 cells were aliquoted upper the OP9 cells at a density of 1×10^5/well, and cocultured with the OP9 cells. These K562 cells were treated with (R)-NALPLE (see Korean Patent No. 10-0688261) at a concentration of 50 μg/ml to induce megakaryocytic differentiation.
To analyze the expression patterns of the selected 4 genes, KLF2, LOC138255, GDF15, and INHBE during megakaryocytic development, RT-PCR was performed to measure the mRNA level in cells.
In order to specifically analyze their expression patterns during megakaryocytic development, the K562 cells were incubated for 6, 12, 24, 48, 72, 96, and 120 hr with the compound ((R)-NALPLE 50 μg/ml). Total cellular RNA was extracted from the K562 cells using an RNeasy mini kit following the manufacturer's instructions using M-MLV Reverse Transcriptase (Promega, Madison, Wis.), and RT-PCR was performed.
Amplification conditions were followed by 20 cycles (for GAPDH) or 25 cycles (for KLF2, LOC138255, GDF15, and INHBE) at 95° C. for 30 seconds, 60° C. for 60 seconds, and 72° C. for 90 seconds. The primers used were the following: • KLF2 forward primer (SEQ ID NO.1): 5′-[…]-3′ • reverse primer (SEQ ID NO.2);5′-CATGTGCCGTTTCATGTGC-3′ • LOC138255 forward primer )SEQ ID NO.3); 5′-[…]-3′ • reverse primer )SEQ ID NO. 4);5′-[…]-3′ • GDF15 forward primer 9SEQ ID NO. 5); 5′-[…]-3′ • reverse primer (SEQ ID NO. 6): 5′-[…]-3′ • INHBE forward primer (SEQ ID NO. 7); 5′-[…]-3′ • reversre primer (SEQ ID NO. 8);5′[…]-3′ • GARDH forward primer (SEQ ID NO. 9);5′-[…]-3′ • reverse primer (SEQ ID NO. 10);5′-[…]-3′
After PCR reaction, each reaction mixture was analyzed by 1% agarose gel electrophoresis, and the bands were visualized by ethidium bromide staining (FIG. 3).

[2] = test system: K562 cells; test: Oligonucleotide array (genechip) of gene expression during megakaryocytic differentiation; settings: K562 cells treated with 50 μg/ml vs undifferentiated cells
Experimental: as §1
mRNAs were extracted from normal K562 cells and compound-treated K562 cells by the method of Example 5. To understand the genetic events during megakaryocytic development, the K562 cells were incubated for 6, 12, 24, 48, 72, 96, and 120 hr with the compound, and mRNAs were extracted from each cell using an RNeasy mini kit (Qiagen, USA). A genechip analysis was performed using 1 μg of RNA and an oligonucleotide array from Macrogen.
From analyzed data, total 67 genes, of which expression levels were increased more than 5-fold in differentiated K562 cells, were assigned. The functional categories included transcription factor, receptor, miscellaneous function, select calcium binding protein, phosphatase, signaling molecule, select regulatory factor, protease, nucleic acid binding, cytoskeleton protein, kinase, cell adhesion molecule, transferase, synthase, hydrolase defense/immunity and molecular function unclassified. Among these genes, selected were 4 genes of which expression levels were increased more 10 fold in differentiated cells, such as KLF2 (Kiruppel-like factor2), LOC138255 (OTTHUMP00000021439), GDF15 (growth differentiation factor 15) and INHBE (inhibin, betaE).

[3] = test system: umbilical cord blood-derived CD34+ hematopoietic stem cell; test: Morphological change and polyploidization of CD34+ hematopoietic stem cells cocultured with OP9 stromal cells
Experimental: (§2) The OP9 stromal cell line was aliquoted into 6-well culture plate at a density of 1×10^5/well, and cultured for 24 hrs as a monolayer in a-MEM supplemented with 20% heat-inactivated FBS, 0.5% penicillin/streptomycin and 1.5 g/L sodium bicarbonate. When the OP9 stromal cell line was cultured as a monolayer, the media was replaced with StemSpan™ H3000 for CD34+ hematopoietic stem cell culture. Then, the CD34+ hematopoietic stem cells were aliquoted upper the op cells at a density of 3×10^5/well.
In order to confirm the distinct morphological change of the umbilical cord blood-derived CD34+ hematopoietic stem cell treated with the compound of Formula 1, the cells were treated with the compound of Formula 1 and the known hematopoietic stem cell differentiation inducers, CC100, CC200, IL-3, IL-6, TPO and SCF, so as to investigate morphological changes and polyploidization of the CD34+ hematopoietic stem cell.
The CD34+ hematopoietic stem cells cocultured with OP9 cells through Example 1 were treated with each of the materials. The cells were treated with each of the hematopoietic stem cell differentiation inducers at a following concentration; CC100 (rhFlt-3 ligand 100 ng/ml, SCF 100 ng/ml, IL-3 20 ng/ml, IL-6 20 ng/ml), CC200 (rhTPO 50 ng/ml, rhSCF 50 ng/ml, IL-3 10 ng/ml), Megacult-C (TPO 5 ng/ml, IL-3 1 ng/ml, IL-6 2 ng/ml), IL-3 of 10 ng/ml, IL-6 of 20 ng/ml, SCF of 50 ng/ml, and (R)-NALPCE of 45 μg/ml.
After 8 days, the cells were photographed by Mag. ×200 to examine the morphological changes (FIG. 1).
In addition, polyploidization of the cells was analyzed by FACS (flow cytometer). The cells were harvested and resuspended with 1×PBS containing 0.1% saponin. 10 mg/mL RNAse A and propidium iodide solution were added thereto. Thereafter, the cells were incubated at room temperature for 30 min. The cells were analyzed by FACS caliber flow cytometer and Cell quest software. Results are means±SD (n=3). Similar results were obtained in three independent experiments (FIG. 1).

[4] = test system: umbilical cord blood-derived CD34+ hematopoietic stem cells; test: CD41 / CD61 megakaryocyte-specific marker expression by FACS in CD34+ hematopoietic stem cells cocultured with OP9; settings: FIG. 2
Experimental: as §2
In order to confirm whether the differentiation of the umbilical cord blood-derived CD34+ hematopoietic stem cells into megakaryocytes and platelets was induced by treatment of the compound of Formula 1, the cells were treated with the compound of Formula 1 and the known hematopoietic stem cell differentiation inducers, CC200 and Megacult-C, singly or in a mixture. Then, expression of megakaryocyte-specific marker, CD41 or CD61 was analyzed.
The CD34+ hematopoietic stem cells cocultured with OP9 cells through Example 1 were treated with each of the hematopoietic stem cell differentiation inducers at a following concentration; CC200 (rhTPO 50 ng/ml, rhSCF 50 ng/ml, IL-3 10 ng/ml), Megacult-C (TPO 5 ng/ml), and (R)-NALPCE 35 ug/ml in culture media.
After 8 days, the culture media were centrifuged (1,000 rpm, 10 min), and the cell pellets thus obtained were washed three times with PBS. The cells were incubated with 20 μl of Fluorescein isothiocyanate (FITC)-conjugated mouse anti-human monoclonal CD41 antibody (DAKOCycomation, Denmark) or 20 μl of Fluorescein isothiocyanate(FITC)-conjugated mouse anti-human monoclonal CD61 antibody (DAKOCycomation, Denmark) in 200 μl of 0.01% bovine serum albumin (BSA)-PBS at 37° C. for 30 min while spinning to realize homogeneous fluorescent staining. After centrifugation (1,000 rpm, 10 min), the cell pellets thus obtained were washed three times with 0.01% bovine serum albumin (BSA) in PBS. Fluorescence was analyzed on a fluorescence-activated cell sorter (FACS Aria) using a Cellquest program. Results are means±SD (n=3). […]

[5] = test system: K562 cells; test: Polyploidization (FACS) and morphology of shRNA-transfected K562 cells cocultured on OP9 in (R)-NALPCE; settings: 50 μg/mL for 4 days, cocultured on OP9, FIG. 4
Experimental: To confirm whether the selected genes regulate the differentiation into megakaryocyte and platelets, shRNAs capable of inhibiting expressions of the KLF2, LOC138255, GDF15, and INHBE genes were constructed, and K562 cells were transfected with shRNAs.
The transfected K562 cells were sorted by FACS Aria flow cytometer, and cocultured upper OP9 stromal cells in 50 μg/mL of (R)-NALPCE for 4 days. Then, the cells were analyzed with a fluorescence-activated cell sorter using Cell quest, and photographed by Mag. ×200. Results are means±SD (n=3). Similar results were obtained in three independent experiments (FIG. 4).

Row | Compound | GDF15 gene expression pattern (RT-PCR) [1] | INHBE gene expression pattern (RT-PCR) [1] | KLF2 gene expression pattern (RT-PCR) [1] | LOC138255 gene expression pattern (RT-PCR) [1] | GDF15 expression increase in differentiated cells (oligonucleotide array) [2] [fold] | INHBE expression increase in differentiated cells (oligonucleotide array) [2] [fold] | KLF2 expression increase in differentiated cells (oligonucleotide array) [2] [fold] | LOC138255 expression increase in differentiated cells (oligonucleotide array) [2] [fold] | morphological change (morphological feature of megakaryocytes) ([3]; 45 μg/ml, after 8 days, cocultured with OP9 cells, photographed Mag. x200, FIG. 1) | polyploidization (FACS, propidium iodide) ([3]; 45 μg/ml, cocultured with OP9 cells, FIG. 1) | megakaryocytic differentiation together with CC200, compared to each single treatment ([3]; addition of compound to CC200 (rhTPO 50 ng/ml, rhSCF 50 ng/ml, IL-3 10 ng/ml)) | megakaryocytic differentiation together with Megacult-C, compared to each single treatment ([3]; addition of compound to Megacult-C (TPO 5 ng/ml, IL-3 1 ng/ml, IL-6 2 ng/ml)) | expression level of CD41 or CD61, CC200 together with the compound vs single treatment of CC200 ([4]; 35 ug/ml plus CC200, after 8 days) | expression level of CD41 or CD61, megacult-C together with the compound vs single treatment of megacult-C ([4]; 35 ug/ml plus Megacult-C (TPO 5 ng/ml), after 8 days) | expression level of megakaryocyte-specific marker CD41 or CD61, compared with cells treated with CC200 or megacult-C ([4]; single treatment 35 ug/ml, after 8 days) | polyploidization of non-transfected K562 cells [5]
1 | N-steroyl-O-phosphocholine-D-serine methyl ester [compound of Formula 1] | markedly expressed at 12 to 96 hr | markedly expressed at 12 to 96 hr | markedly expressed at 12 to 96 hr | markedly expressed at 12 to 96 hr |  |  |  |  |  |  |  |  |  |  |  | 
2 | CCCCCCCCCCCCCCCCCC(=O)N[C@H](COP(=O)([O-])OCC[N+](C)(C)C)C(=O)OC [compound of Formula 1, N-steroyl-O-phosphocholine-D-serine methyl ester] |  |  |  |  | > 10 | > 10 | > 10 | > 10 | increase in cytoplasmic mass and cell size | high nucleus number due to polyploidization through endomitosis | more induced megakaryocytic differentiation | more induced megakaryocytic differentiation | higher | higher | higher | high nucleus number due to polyploidization through the endomitosis
